Where two headings read alike, the source gives them in different places.
Experiments:
[1] = target: T1, recombinant PKD (Homo sapiens, UniProt Q15139); experiment: [γ-32P]ATP phosphorylation of c-Jun, SDS-PAGE autoradiography, densitometry; format: biochemical
T1 construct: gene PRKD1; commercial recombinant kinase (Upstate)
T1 sequence (Q15139 1-912): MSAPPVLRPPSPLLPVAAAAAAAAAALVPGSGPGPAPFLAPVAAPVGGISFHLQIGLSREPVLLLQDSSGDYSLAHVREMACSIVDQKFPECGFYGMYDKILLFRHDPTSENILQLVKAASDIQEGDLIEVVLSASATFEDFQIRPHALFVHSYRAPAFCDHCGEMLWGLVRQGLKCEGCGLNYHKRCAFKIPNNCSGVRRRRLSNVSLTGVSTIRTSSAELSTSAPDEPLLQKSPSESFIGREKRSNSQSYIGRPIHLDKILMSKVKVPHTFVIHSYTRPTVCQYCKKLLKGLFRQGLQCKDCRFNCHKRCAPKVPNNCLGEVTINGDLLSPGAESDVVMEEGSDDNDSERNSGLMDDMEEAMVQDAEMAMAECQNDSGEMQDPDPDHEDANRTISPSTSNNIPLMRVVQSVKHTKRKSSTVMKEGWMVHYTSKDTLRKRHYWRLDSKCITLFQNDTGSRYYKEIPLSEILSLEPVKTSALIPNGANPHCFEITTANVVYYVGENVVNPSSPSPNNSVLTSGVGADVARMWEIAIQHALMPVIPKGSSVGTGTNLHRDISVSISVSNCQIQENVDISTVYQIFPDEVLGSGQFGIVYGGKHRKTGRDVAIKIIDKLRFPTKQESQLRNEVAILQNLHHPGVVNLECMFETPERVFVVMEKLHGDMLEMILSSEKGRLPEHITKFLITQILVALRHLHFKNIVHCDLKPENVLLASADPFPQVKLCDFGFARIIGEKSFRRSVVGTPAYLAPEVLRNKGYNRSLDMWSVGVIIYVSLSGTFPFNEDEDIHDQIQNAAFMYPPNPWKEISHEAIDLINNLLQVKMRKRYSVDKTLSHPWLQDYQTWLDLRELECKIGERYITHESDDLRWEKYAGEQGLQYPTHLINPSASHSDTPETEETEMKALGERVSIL
Excerpt: [γ-32P]ATP phosphorylation of c-Jun, SDS-PAGE autoradiography, densitometry on recombinant PKD

[2] = target: T2, Recombinant CK2 (2α2β) (Homo sapiens, UniProt P68400); experiment: as above; format: biochemical
T2 construct: gene CSNK2A1; commercial recombinant holoenzyme (Calbiochem), alpha2beta2 tetramer; with Casein kinase II subunit beta
Excerpt: [γ-32P]ATP phosphorylation of c-Jun, SDS-PAGE autoradiography, densitometry on Recombinant CK2 (2α2β)

T2 sequence (P68400 whole entry): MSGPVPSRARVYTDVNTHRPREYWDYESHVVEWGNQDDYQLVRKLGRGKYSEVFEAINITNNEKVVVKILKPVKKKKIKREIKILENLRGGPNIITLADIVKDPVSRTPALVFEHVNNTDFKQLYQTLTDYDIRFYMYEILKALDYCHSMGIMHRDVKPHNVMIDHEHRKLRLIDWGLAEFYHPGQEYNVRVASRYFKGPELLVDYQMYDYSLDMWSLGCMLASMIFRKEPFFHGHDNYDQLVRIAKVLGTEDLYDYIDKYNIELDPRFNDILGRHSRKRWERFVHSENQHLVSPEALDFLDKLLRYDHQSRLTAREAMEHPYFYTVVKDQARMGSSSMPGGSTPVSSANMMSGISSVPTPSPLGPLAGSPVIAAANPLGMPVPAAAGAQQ
T2 sequence (P67870 2-215 partner): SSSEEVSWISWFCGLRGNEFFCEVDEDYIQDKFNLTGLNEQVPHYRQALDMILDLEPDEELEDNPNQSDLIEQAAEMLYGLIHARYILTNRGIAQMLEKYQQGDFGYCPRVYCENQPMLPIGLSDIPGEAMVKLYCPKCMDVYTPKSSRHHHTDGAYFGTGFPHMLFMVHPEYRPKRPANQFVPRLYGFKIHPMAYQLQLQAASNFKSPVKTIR

Row | SMILES | IC50 ([1]; read-out: IC50 PKD) [µM] | IC50 ([2]; read-out: IC50 CK2) [µM] | IC50 [1] [µM] | IC50 [2] [µM]
1 | O=C(NN=Cc1cc(Cl)cc(Cl)c1O)c1ccccn1 [BTB00363, 2-Pyridinecarboxylic acid, [(3,5-dichloro-2-hydroxyphenyl)methylene]hydrazide] | 118 | 333 | – | –
2 | O=C1C=CC(=O)c2c1c(O)c1ccccc1c2O [BTB14431, 9,10-dihydroxy-1,4-dihydroanthracene-1,4-dione] | – | – | 68.9 | 6.4
3 | COc1ccc2c(=O)c3ccccc3n(C)c2c1 [JFD02836, 3-methoxy-10-methyl-9,10-dihydro-9-acridinone] | – | – | 39.7 | 19.9
4 | O=C1C(=CO)c2ccccc2-c2ccccc21 [JFD03665, 10-(hydroxymethylene)phenanthren-9(10H)-one] | – | – | 155 | 5.9
5 | Oc1cc(O)cc(/C=C/c2ccc(O)c(O)c2)c1 [Piceatannol] | 0.5 | 2.5 | – | –
6 | Nc1c2c(nc3cccc(F)c13)OCCC2 [SEW04213, 6-fluoro-3,4-dihydro-2H-pyrano [2,3-b]quinolin-5-amine] | – | – | 186 | 37.9
